Data on 23 compounds can be found in patent publication US7511047B2, “Kinase inhibitors” (Cytopia Research Pty Ltd, priority 2002, dated 2009).

What all share (assay type): biochemical
The target in one assay is T1, Jak2 (Homo sapiens, UniProt O60674).
T1 construct: The kinase domain of humanJAK2 was amplified from U937mRNA; His tag (from pFastBac HTc vector) (N); made in house; host or cells: baculovirus; Sf9 insect cells for virus, High Five cells for large-scale production
The assay can be described thus: JAK2 kinase domain assay (ELISA or Alphascreen). The following applies: capacity to inhibit 50% of activity at 50 μM; read-out: Jak2 inhibitory activity. Here is the method:
(§1) For screening purposes, compounds were diluted in 96 well plates at a concentration of 20 μM. Plates were warmed at 37° C. for 30 minutes before assay.
• JAK1 PCR products were cloned into the pFastBac HTb expression vector (Gibco) via the Xho I and Kpn I sites. The JAK1 plasmid was then transformed into competent DH10Bac cells (Gibco), and the recombinant baculovirus produced prepared for transfection into Sf9 insect cells. JAK2 • The kinase domain of humanJAK2 was amplified from U937mRNA using the polymerase chain reaction with the following primers:
• JAK2 PCR products were cloned into the pFastBac HTc expression vector (Gibco) via the Sal I and Not I sites. The JAK2 plasmid was then transformed into competent DH10Bac cells (Gibco), and the recombinant baculovirus produced prepared for transfection into Sf9 insect cells. JAK3 • The kinase domain of humanJAK3 was amplified from U937mRNA using the polymerase chain reaction with the following primers: […]
(§2) Baculovirus preparations from each of the JAK family members were infected into five litres of High Five cells (Invitrogen) grown in High Five serum free medium (Invitrogen) to a cell density of approximately 1-2×10^6 cells/ml. Cells are infected with virus at a MOI of 0.8-3.0. Cells were harvested and lysed. JAK kinase domains were purified by affinity chromatography on a Probond (Invitrogen) nickel chelate affinity column.
(§3) Kinase assays were performed either in a 96 well capture-based ELISA assay or in 384 well Optiplates (Packard) using an Alphascreen Protein Tyrosine Kinase kit. In either casse using approximately 1.5 μg of affinity purified PTK domain in the presence of 50 mM HEPES, pH 7.5, 10 mM MgCl2, 150 mM NaCl and 10 μM-1 mM ATP. The biotinylated substrate biotin-EGPWLEEEEEAYGWMDF-NH2 (SEQ ID NO:9) (final concentration 5 μM) was used as substrate. In the ELISA assay tyrosine phosphorylation was quantitated following transfer to an avidin coated ELISA plate using peroxidase-linked anti-phospho-tyrosine antibody PY20. In the Alphascreen assay, Alphascreen phosphotyrosine acceptor beads followed by streptavidin donor beads were added under subdued light. The ELISA plates were read on a BMG Fluorostar, the Alphascreen plates were read on a Packard Fusion Alpha. Inhibitors were added to the assays fifteen minutes prior to the addition of ATP. Inhibitors were added in aqueous DMSO, with DMSO concentrations never exceeding 1%.
For orientation: In an ELISA, binding on a coated surface is turned into a signal by an enzyme label.

Another assay deals with hck (Homo sapiens, UniProt P08631). Briefly: hck kinase assay (ELISA or Alphascreen). The settings on record: capacity to inhibit 50% of activity at 50 μM; read-out: hck inhibitory activity. How it is done:
as §1, §3

In the next assay the target is T2, Jak3 (Homo sapiens, UniProt P52333).
T2 construct: The kinase domain of humanJAK3 was amplified from U937mRNA; His tag (from pFastBac HTb vector) (N); made in house; host or cells: baculovirus; Sf9 insect cells for virus, High Five cells for large-scale production
T2 sequence (P52333 822-1111 limits assumed): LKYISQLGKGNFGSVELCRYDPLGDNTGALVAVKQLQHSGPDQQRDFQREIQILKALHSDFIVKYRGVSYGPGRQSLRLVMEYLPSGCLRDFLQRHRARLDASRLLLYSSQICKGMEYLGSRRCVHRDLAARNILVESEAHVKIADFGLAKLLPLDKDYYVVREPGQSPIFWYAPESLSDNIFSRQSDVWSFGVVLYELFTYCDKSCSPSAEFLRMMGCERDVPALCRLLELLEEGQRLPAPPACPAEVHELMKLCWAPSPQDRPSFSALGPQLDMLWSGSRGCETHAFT
Briefly: JAK3 kinase domain assay (ELISA or Alphascreen). The following applies: capacity to inhibit 50% of activity at 50 μM; read-out: Jak3 inhibitory activity. How it is done: as §1
• JAK2 PCR products were cloned into the pFastBac HTc expression vector (Gibco) via the Sal I and Not I sites. The JAK2 plasmid was then transformed into competent DH10Bac cells (Gibco), and the recombinant baculovirus produced prepared for transfection into Sf9 insect cells. JAK3 • The kinase domain of humanJAK3 was amplified from U937mRNA using the polymerase chain reaction with the following primers:
• JAK3 PCR products were cloned into the pFastBac HTb expression vector (Gibco) via the Xho I and Kpn I sites. The JAK3 plasmid was then transformed into competent DH10Bac cells (Gibco), and the recombinant baculovirus produced prepared for transfection into Sf9 insect cells. TYK2 • The kinase domain of humanTYK2 was amplified from A549 mRNA using the polymerase chain reaction with the following primers: […]
as §2, §3

A further assay concerns the target T3, abl (Homo sapiens, UniProt P00519).
T3 sequence (P00519 242-493 limits assumed): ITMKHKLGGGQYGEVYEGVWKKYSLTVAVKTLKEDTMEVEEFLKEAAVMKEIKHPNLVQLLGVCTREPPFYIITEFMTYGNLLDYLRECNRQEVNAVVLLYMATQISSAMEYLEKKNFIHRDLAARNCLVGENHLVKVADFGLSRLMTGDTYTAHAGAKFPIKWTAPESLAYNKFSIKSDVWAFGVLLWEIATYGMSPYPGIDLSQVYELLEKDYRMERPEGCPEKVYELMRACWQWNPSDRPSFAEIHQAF
The assay can be described thus: abl kinase assay (ELISA or Alphascreen). The following applies: capacity to inhibit 50% of activity at 50 μM; read-out: abl inhibitory activity. How it is done:
as §1, §3

The target of the next assay is kdr (Homo sapiens, UniProt P35968). Briefly: kdr kinase assay (ELISA or Alphascreen). The settings on record: capacity to inhibit 50% of activity at 50 μM; read-out: kdr inhibitory activity. Here is the method:
as §1, §3

T1 sequence (O60674 849-1124 limits assumed): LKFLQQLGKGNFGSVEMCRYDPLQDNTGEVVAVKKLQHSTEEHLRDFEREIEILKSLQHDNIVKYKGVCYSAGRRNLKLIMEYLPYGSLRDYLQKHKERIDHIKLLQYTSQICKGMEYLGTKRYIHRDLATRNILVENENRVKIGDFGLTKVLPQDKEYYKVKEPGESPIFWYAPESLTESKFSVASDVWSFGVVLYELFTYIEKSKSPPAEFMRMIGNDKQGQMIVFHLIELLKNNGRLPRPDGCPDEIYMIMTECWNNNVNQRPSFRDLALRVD
hck, sequence (P08631 262-515 limits assumed, species assumed): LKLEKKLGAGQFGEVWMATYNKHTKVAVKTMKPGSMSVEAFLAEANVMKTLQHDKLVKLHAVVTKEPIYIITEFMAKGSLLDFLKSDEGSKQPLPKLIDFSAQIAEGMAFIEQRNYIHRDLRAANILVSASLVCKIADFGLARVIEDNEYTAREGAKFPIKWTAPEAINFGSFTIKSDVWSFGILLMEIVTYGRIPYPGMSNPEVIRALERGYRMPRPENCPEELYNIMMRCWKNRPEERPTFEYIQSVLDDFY
kdr, sequence (P35968 834-1162 limits assumed, species assumed): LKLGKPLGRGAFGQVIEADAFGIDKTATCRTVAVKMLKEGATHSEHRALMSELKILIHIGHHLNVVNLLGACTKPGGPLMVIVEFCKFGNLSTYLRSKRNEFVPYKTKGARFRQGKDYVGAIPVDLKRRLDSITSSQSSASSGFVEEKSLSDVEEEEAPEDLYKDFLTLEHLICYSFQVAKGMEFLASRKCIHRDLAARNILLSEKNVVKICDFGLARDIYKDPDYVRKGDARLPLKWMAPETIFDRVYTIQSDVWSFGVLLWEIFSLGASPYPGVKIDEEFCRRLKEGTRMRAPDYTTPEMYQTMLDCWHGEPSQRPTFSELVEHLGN

For the compound `Cc1cncn1-c1cncc(NCc2ccc(F)cc2)n1`, the inhibition at 50 µM at Jak2 is below 50%; at hck, above 50%; at Jak3 it was below 50%; on abl it was above 50%; at kdr, below 50%.

Turning to `C[C@@H](Nc1cncc(-n2cnc3ccccc32)n1)c1ccccc1`, the inhibition at 50 µM at Jak2 is above 50%; at hck it was above 50%; on Jak3, below 50%; on abl, above 50%; on kdr, above 50%.

`C[C@H](Nc1cncc(-n2cnc3ccc(NC(=O)c4cnccn4)cc32)n1)c1ccccc1`: the inhibition at 50 µM on Jak2 is above 50%; at hck, above 50%; at Jak3, below 50%; at abl, below 50%; on kdr, above 50%.

For `CC(Nc1cncc(-n2cnc3ccccc32)n1)c1ccc(-c2ccccc2)cc1` (stereo not shown), the inhibition at 50 µM was below 50% at Jak2; above 50% at hck; below 50% on Jak3; above 50% on abl; below 50% at kdr.

Regarding `C[C@H](Nc1cncc(-n2cnc3cc(C(=O)NCCCn4ccnc4)ccc32)n1)c1ccccc1`, the inhibition at 50 µM is above 50% at Jak2; above 50% on hck; below 50% at Jak3; above 50% on abl; above 50% on kdr.

Take `C[C@H](Nc1cncc(-n2cnc3ccc(C4=NCCO4)cc32)n1)c1ccccc1`: the inhibition at 50 µM at Jak2 was above 50%; at hck it was above 50%; at Jak3, below 50%; on abl, above 50%; at kdr, above 50%.

For `C[C@H](Nc1cncc(-n2cnc3ccc(C(=O)NCCCCN4CCOCC4)cc32)n1)c1ccccc1`, the inhibition at 50 µM on Jak2, on hck, at Jak3, on abl and at kdr was above 50% throughout.

`Cc1cn(-c2cncc(NCc3ccc(F)cc3)n2)cn1`: the inhibition at 50 µM is above 50% on Jak2; below 50% at hck; below 50% at Jak3; below 50% at abl; below 50% on kdr.

Turning to `C[C@H](Nc1cncc(-n2cnc3ccc(NC(=O)C(C)(C)C)cc32)n1)c1ccccc1`, the inhibition at 50 µM on Jak2, on hck, on Jak3, on abl and at kdr was above 50% throughout.

As for `C[C@H](Nc1cncc(-n2cnc3cc(NS(C)(=O)=O)ccc32)n1)c1ccccc1`, the inhibition at 50 µM on Jak2 is above 50%; on hck, above 50%; at Jak3, below 50%; on abl it was above 50%; at kdr, above 50%.

With `C[C@H](Nc1cncc(-n2cnc3cc(C(=O)NCCCCN4CCOCC4)ccc32)n1)c1ccccc1`, the inhibition at 50 µM at Jak2, at hck, on Jak3, at abl and at kdr was above 50% in each case.

As to `C[C@H](Nc1cncc(-n2cnc3cc(Br)ccc32)n1)c1ccccc1`, the inhibition at 50 µM on Jak2, at hck, at Jak3, at abl and on kdr was above 50% throughout.

As to `COCC(=O)Nc1ccc2ncn(-c3cncc(N[C@@H](C)c4ccccc4)n3)c2c1`, the inhibition at 50 µM is above 50% on Jak2; above 50% at hck; below 50% at Jak3; above 50% on abl; above 50% on kdr.

For the compound `C[C@H](Nc1cncc(-n2cnc3cc(NC(=O)c4cccnc4)ccc32)n1)c1ccccc1`, the inhibition at 50 µM on Jak2 is above 50%; on hck, above 50%; on Jak3, below 50%; on abl, above 50%; at kdr it was above 50%.

In the case of `C[C@H](Nc1cncc(-n2cnc3ccc(C(=O)NCCCN4CCOCC4)cc32)n1)c1ccccc1`, the inhibition at 50 µM at Jak2 was above 50%; at hck, above 50%; on Jak3 it was below 50%; on abl it was above 50%; on kdr, above 50%.

Regarding `CNC(=O)c1ccc2ncn(-c3cncc(N[C@@H](C)c4ccccc4)n3)c2c1`, the inhibition at 50 µM at Jak2, on hck, at Jak3, at abl and on kdr was above 50% each time.

`C[C@H](Nc1cncc(-n2cnc3cc(-c4cccnc4)ccc32)n1)c1ccccc1`: the inhibition at 50 µM on Jak2, on hck, at Jak3, at abl and at kdr was above 50% each time.

Take `C[C@H](Nc1cncc(-n2cnc3ccc(N)cc32)n1)c1ccccc1`: the inhibition at 50 µM on Jak2 is above 50%; on hck it was above 50%; at Jak3, below 50%; on abl it was above 50%; on kdr it was above 50%.

`C[C@H](Nc1cncc(-n2cnc3cc(NC(=O)C4CCCNC4)ccc32)n1)c1ccccc1` (stereo partly shown): the inhibition at 50 µM on Jak2, on hck, at Jak3, at abl and on kdr was above 50% in each case.

In the case of `C[C@H](Nc1cncc(-n2cnc3ccc(C(=O)NCCO)cc32)n1)c1ccccc1`, the inhibition at 50 µM at Jak2, at hck, on Jak3, at abl and on kdr was above 50% each time.

As for `C[C@H](Nc1cncc(-n2cnc3cc(NC(=O)c4ccncc4)ccc32)n1)c1ccccc1`, the inhibition at 50 µM was below 50% at Jak2; above 50% at hck; below 50% on Jak3; above 50% on abl; above 50% on kdr.

As to `c1ccc(CNc2cncc(-n3cnc4ccccc43)n2)cc1`, the inhibition at 50 µM at Jak2 was above 50%; on hck, above 50%; at Jak3 it was above 50%; on abl, above 50%; on kdr, below 50%.

As for `C[C@H](Nc1cncc(-n2cnc3cc(NC(=O)C(C)(C)C)ccc32)n1)c1ccccc1`, the inhibition at 50 µM at Jak2, on hck, at Jak3, at abl and on kdr was above 50% in each case.
